Data reported in ChEMBL document CHEMBL1157539, “Thousands of chemical starting points for antimalarial lead identification” (Nature, 2010).

System: Plasmodium falciparum
Assay: GSK_TCMDC: Inhibition of Plasmodium falciparum 3D7 in whole erythrocytes, using parasite LDH activity as an index of growth.
Assay type: functional, organism-based
Conditions: Plasmodium falciparum, 3D7

Compound | XC50
COc1cccc(CNC[C@@H](O)[C@H](Cc2ccccc2)NC(=O)c2cc(NC(C)C)cc(N3CCCCS3(=O)=O)c2)c1 | 784 nM
Cc1ccc(S(=O)(=O)NC(=N)NC(N)=O)cc1 | 794 nM
COc1ccc2nc(NC(N)=NC(=O)Nc3ccccc3)nc(C)c2c1 | 1280 nM
OCCc1ccc(Nc2nccc(-c3nnc4ccccn34)n2)cc1 | 901 nM
N#Cc1nc2ccc(OCCN(Cc3ccccc3C(F)(F)F)c3ccc(C#N)c(C(F)(F)F)c3)cc2s1 | 855 nM
CN(CCCc1c[nH]c2ccccc12)CCC1CCC(NC(=O)/C=C/c2ccc(Cl)c(Cl)c2)CC1 (stereo not given) | 650 nM
CCc1cn(C)c2c(N3CCCC3=O)cc(C(=O)N[C@@H](Cc3ccccc3)[C@H](O)CNC(C)(C)c3cccc(OC)c3)cc12 | 36 nM
CN(/N=C/c1ccc(Cl)cc1)c1nc(NCCc2ccc(O)cc2)nc(N2CCNCC2)n1 | 1350 nM
Cc1cc(Cl)c(S(=O)(=O)NC(C)(C)C)cc1OCC(=O)NC1CCCCC1 | 548 nM
CN1CCN(c2ccc(-c3cccc(NC(=O)c4cccc(Cl)c4)c3)nn2)CC1 | 579 nM
COc1ccc2nccc(N3CCC(CCNCc4cc5c(cn4)OCCO5)CC3)c2c1 | 874 nM
CCCCOC(=O)C1=C(C)NC2=C(C(=O)CC(c3ccc(OC)c(OC)c3)C2)C1c1ccc(O)cc1 (stereo not given) | 834 nM
COc1cccc(CCc2cccc(CNC(C)=O)c2)c1 | 1040 nM
CC12CC3CC(C)(C1)CC(Nc1nc(N4CCOCC4)nc4ccccc14)(C3)C2 | 938 nM
Cc1nc(NCc2ccccc2)cc(Nc2cc(NCc3ccccc3)nc(C)n2)n1 | 971 nM
COc1ccc2nccc(N3CCC(O)(CCNCc4ccc5c(n4)NC(=O)CS5)CC3)c2n1 | 648 nM
O=C(NCCCCCN1CCC(c2c[nH]c3ccccc23)C1)Nc1ccc(Cl)c(Cl)c1 (stereo not given) | 811 nM
COC(=O)C(=O)c1c(-c2ccccc2)c(-c2ccc(OC)c(OC)c2)c2c3cc(OC)c(OC)cc3ccn12 | 636 nM
O=c1[nH]nc(-c2ccc(N3CCCC3)c([N+](=O)[O-])c2)c2ccccc12 | 631 nM
O=C(NCc1ccc(F)cc1)c1cnc(N2CCN(c3ccncc3)CC2)c(Cl)c1 | 1390 nM
O=C(NCCCCN1CCC(c2ccc3c(c2OCCCO)CCCC3)CC1)c1ccc(-c2ccc(C(F)(F)F)cc2)cc1 | 718 nM
O=C(Nc1cccc(F)c1)N[C@H]1CCN(CCCCCNC(=O)C2CC2c2ccc(Cl)c(Cl)c2)C1 (stereo not given in full) | 991 nM
c1cc(CNCC2CCCO2)cc(-c2ccc(-c3nc4ccccc4[nH]3)s2)c1 (stereo not given) | 1170 nM
CC(C)N1CCN(CCCNc2c3ccccc3nc3ccccc23)CC1 | 233 nM

Compound | XC50
O=C(CCCCCNC(=O)c1ccc(O)c(-c2ccc(Cl)c(Cl)c2)c1)NCCN1CCCCC1 | 886 nM
CCC(CN1C(=O)C(c2ccccc2)(c2ccccc2)N=C1N)c1ccccc1 (stereo not given) | 136 nM
COc1cc(Nc2nccc(N3CCC(NC(=O)c4cccc(C#N)c4)C3)n2)cc(OC)c1OC (stereo not given) | 992 nM
COCCNCc1cccc(-c2ccc3c(Nc4ccc(Oc5ccccc5)cc4)ccnc3c2)c1 | 517 nM
COc1ccc(-n2nc(C(=O)NCCC3=CCCCC3)c3ccccc3c2=O)cc1 | 682 nM
O=C(COc1ccccc1)Nn1cnc2ccccc21 | 1050 nM
CCc1ccc(CN2CCC(CNC(=O)c3cc(-c4cccc(Cl)c4)cs3)C2)cc1 (stereo not given) | 1110 nM
CN1CCN(S(=O)(=O)c2ccc3nccc(Nc4ccc(Oc5ccccc5)cc4)c3c2)CC1 | 818 nM
Cc1c(F)cc(C(=O)NC2CC2)cc1-c1ccc2c(c1)c(C)nn2S(=O)(=O)c1cccs1 | 942 nM
CCN(CC)S(=O)(=O)c1ccc(C(C)NC(=O)c2ccccc2COc2ccccc2)cc1 (stereo not given) | 330 nM
Oc1ccc(CCNc2nc(NCc3ccccc3-c3ccc(C(F)(F)F)cc3)nc(N3CCCNCC3)n2)cc1 | 866 nM
O=C(Nc1cccc(C2=NCCCN2)c1)Nc1cccc(C2=NCCCN2)c1 | 561 nM
Cc1cc(C(F)(F)F)nn1-c1ccc(NC(=O)c2ccco2)cc1 | 734 nM
COc1ccc(-c2nc3c4ccccc4c4ccc(I)cc4c3[nH]2)cc1 | 1100 nM
COc1cccc(C(=O)C2CC2CN(C)CC(O)c2cc(C)c(OC)cc2C)c1 (stereo not given) | 1140 nM
CCC(CC)(Cc1ccccc1)NC(=O)[C@H](CC1CCCCC1)Nc1ccc(C#N)c2ccccc12 | 634 nM
O=C(NCCCN1CCN(c2cccc(Cl)c2)CC1)c1ccc(-c2nc3cc(Cl)c(Cl)cc3[nH]2)cc1 | 697 nM
O=C(NCc1ccc(Cl)c(Cl)c1)c1cc(CNC2CCNCC2)ccc1O | 859 nM
O=C(NCc1cccc(F)c1)Nc1ccc(-c2cccc(-c3nc4cc(F)ccc4[nH]3)c2)cc1 | 772 nM
O=C(NC1CC1)c1ccc(N2CCCC(COc3ccccc3F)C2)nc1 (stereo not given) | 897 nM
O=C(/C=C/c1ccc(Cl)c(Cl)c1)NCCCCCN1CCCN(C(=O)Nc2ccc(Br)cc2)CC1 | 777 nM
Cc1cccc2nc(-c3cccc(-c4ccc(NC(=O)c5ccncc5)cc4)c3)[nH]c12 | 497 nM
COc1ccc(CNCc2ccc(-c3ccc(-c4nc5cc(C(F)(F)F)ccc5[nH]4)s3)cc2)cc1 | 174 nM
Cc1cccc2nc(-c3ccc(-c4cccc(CNCCCNS(C)(=O)=O)c4)s3)[nH]c12 | 1020 nM

Compound | XC50
Clc1cccc(Nc2ccc3c(N4CCCCC4)ncnc3n2)c1 | 577 nM
COc1ccc(NC(=O)c2ccc(Br)c(C)c2)cc1N1CCN(CCCc2c[nH]c3ccccc23)CC1 | 382 nM
CCc1ccc(C2CCN(CCCCNC(=O)c3ccc(-c4ccc(C#N)cc4)cc3)CC2)c(OCCO)c1 | 938 nM
O=C(NCc1ccccc1)Nc1ccc(-c2ccc(-c3nc4cc(C(F)(F)F)ccc4[nH]3)cc2)cc1 | 671 nM
O=C(Nc1ccc(Cn2ncc(N3CCCNCC3)c(Cl)c2=O)cc1)Nc1cc(Cl)cc(Cl)c1 | 866 nM
C=CCOC(=O)N1CCC(CNCc2cccc(-c3cccc(-c4nc5ccccc5[nH]4)c3)c2)C1 (stereo not given) | 340 nM
CCc1nc2c(N)nc(N)nc2nc1-c1ccc(OC)cc1 | 1200 nM
O=C(NC1CC1)c1ccc2cc(C(=O)N3Cc4ccccc4C(c4ccccc4)C3)ccc2c1 (stereo not given) | 910 nM
Cc1ccc(Nc2ccnc(Nc3ccc(C)c(F)c3)n2)cc1O | 761 nM
Cc1cccc2nc(-c3ccc(-c4cccc(NC(=O)Nc5ccccc5)c4)cc3)[nH]c12 | 715 nM
COc1c(I)cc(Cc2cnc(N)nc2N)cc1I | 930 nM
O=C(Nc1cccc(N2CCC(NCc3cnn(-c4cccc(F)c4)c3)CC2)c1)c1ccncc1 | 1390 nM
CC(C)(C)C(=O)Nc1c(-c2cc(=O)oc3cc4c(cc23)CCC4)oc2ccccc12 | 1260 nM
FC(F)(F)COc1ccc(CCNCCCCNCCc2ccc(OCC(F)(F)F)c3ccccc23)c2ccccc12 | 648 nM
CN(C)CCCNc1ncnc2c1[nH]c1ccc(Br)cc12 | 319 nM
O=C(Nc1ccc(-c2cccc(-c3nc4ccccc4[nH]3)c2)cc1)c1cnn2cccnc12 | 597 nM
N=C(N)CCN(Cc1ccc(Cl)cc1)c1ccc(Cl)cc1 | 1060 nM
CC[C@H]1CN2CC[C@H]1C[C@H]2[C@H](O)c1cc(-c2ccc(Cl)c(Cl)c2)nc2ccc(OC)cc12 | 115 nM
CO/C(=C\C=C\c1cc2cc(Cl)c(Cl)cc2[nH]1)C(=O)NCCCNC12CC3CC(CC(C3)C1)C2 | 730 nM
O=C(Nc1ccc(Cl)c(Cl)c1)N1CCc2cc3nccc(N4CCN5CCC[C@H]5C4)c3cc21 | 628 nM
Cc1cc2cc(/C=C/C(=O)NC3CCC(CCN4CCc5ccc(C#N)cc5CC4)CC3)ccc2[nH]1 (stereo not given) | 880 nM
NC(=O)c1cccc(C(=O)Nc2cccc(-c3ccc(-c4nc5cc(C(F)(F)F)ccc5[nH]4)cc3)c2)c1 | 520 nM
NC1=NC(c2ccccc2)(c2ccccc2)C(=O)N1Cc1ccc(-c2cccnc2)cc1 | 704 nM
O=C(Cc1c[nH]cn1)Nc1ccc(-c2cccc(-c3nc4cc(C(F)(F)F)ccc4[nH]3)c2)cc1 | 742 nM

Compound | XC50
O=C(NC1CC1)c1cnc(N2CCC(Cc3ccccc3)CC2)c(Cl)c1 | 672 nM
CCNc1cc(C(=O)N[C@@H](Cc2ccccc2)[C@H](O)CNCCc2cccc(C(F)(F)F)c2)cc(N2CCCC2=O)c1 | 879 nM
CC(=O)Nc1ccc(CN2Cc3ccc(NC(=O)Nc4ccc(Oc5ccccc5)cc4)cc3C2)s1 | 918 nM
Cc1c(C)c2c(c(C)c1O)CC[C@](C)(C(=O)N1CCC(CCN3CCC(c4c[nH]c5ccccc45)CC3)CC1)O2 | 834 nM
Cc1ccc(S(=O)(=O)N(CCCN2CCN(C)CC2)Cc2csc(-c3ccc(CNCc4ccccc4)cc3)n2)cc1 | 841 nM
CC(C)CNCc1cccc(-c2ccc(CN(CCCN3CCN(C)CC3)C(=O)/C=C/c3ccccc3)cc2)c1 | 857 nM
CCC[C@@H]([C@@H](CC(C)C)C(=O)N[C@@H](CCCNc1nccc(C(F)(F)F)n1)C(=O)Nc1nccs1)N(O)C=O | 373 nM
CN(C)S(=O)(=O)n1ncc2c3c(N)nc(N)nc3ccc21 | 178 nM
Cc1cc(=O)c2cc(Oc3cccc(OC(F)(F)F)c3)ccc2[nH]1 | 862 nM
O=S(=O)(c1cccc(C(F)(F)F)c1)N1CCC(CO)(Cc2cccc(C(F)(F)F)c2)CC1 | 964 nM
COc1ccc(CNC2CCN(C)CC2)cc1-c1ccc(S(=O)(=O)NCc2ccccc2)cc1 | 604 nM
Cc1nc2cc(/C=C/C(=O)NC3CCC(CCN4CCc5ccc(C#N)cc5CC4)CC3)ccc2[nH]1 (stereo not given) | 1140 nM
CC[C@H]1CN2CC[C@H]1C[C@@H]2[C@@H](O)c1ccnc2ccc(OC)cc12 | 119 nM
O=C(Nc1cccc(-c2nn3ncccc3c2-c2ccnc(Nc3cccnc3)n2)c1)c1c(F)cccc1F | 528 nM
Cc1ccc(-c2cc(C(=O)Nc3ccc(S(=O)(=O)N4CCCCC4)cc3)[nH]n2)c(O)c1 | 1770 nM
Cc1nn(-c2ccccc2)c2nc(-c3ccccc3)cc(C(=O)N3CCOCC3)c12 | 872 nM
O=C(Nc1ccc(-c2nc3ccccc3[nH]2)cc1)c1ccc(N2CCOCC2)c([N+](=O)[O-])c1 | 794 nM
FC(F)(F)c1ccc2[nH]c(-c3cccc(-c4cccc(CNCc5cnn(-c6ccccc6)n5)c4)c3)nc2c1 | 552 nM
CN1CCN(c2ccc3[nH]c(-c4ccc5[nH]c(-c6ccc(O)cc6)nc5c4)nc3c2)CC1 | 121 nM
CCN1CCC(NCc2ccc(-c3ccc(Cl)cc3)cc2)CC1 | 1020 nM
COc1ccc2cc(CNCCCCCCNCc3ccc4cc(OC)ccc4c3)ccc2c1 | 624 nM
COc1ccc2nccc(NCC3(O)CCC(NCc4cc5c(cn4)OCCO5)CC3)c2n1 (stereo not given) | 664 nM
c1cc(CNCCN2CCNCC2)cc(-c2cccc(-c3nc4ccccc4[nH]3)c2)c1 | 959 nM
